{"source": "paper PMC3133734", "about": "(Journal of medicinal chemistry, 2011)", "key": {"[1]": {"tested_on": "HIV-1 virus strain RF in CEM-SS cells", "test": "HIV-1 cytopathicity assay", "assay_type": "cell-based", "details": "HIV-1RF"}, "[2]": {"target": "RNase H-deficient p66^EQ/p51 HIV-1 RT (Human immunodeficiency virus type 1 group M subtype B, UniProt P04585, E1065Q)", "test": "DNA-dependent DNA polymerase assay, RNase H mutant p66^E478Q/p51", "assay_type": "biochemical", "details": "inhibitor 20 µM"}, "[3]": {"target": "RNase H-deficient p66^DA/p51 HIV-1 RT (Human immunodeficiency virus type 1 group M subtype B, UniProt P04585, D1136A)", "test": "DNA-dependent DNA polymerase assay, RNase H mutant p66^D549A/p51", "assay_type": "biochemical", "details": "inhibitor 20 µM"}}, "note": "Marks after values point to notes of the source that are not given here.", "data": [{"molecule": "Cc1cc(O)c(=O)c(O)c2c1C[C@@H](C(C)NCc1ccccc1)CC2", "note": "(mixture of isomers) [Compound 14, 2-(1-Benzylamino-ethyl)-5,7-Dihydroxy-9-methyl-1,2,3,4-tetrahydrobenzocyclohepten-6-one]", "values": [{"measurement": "protection against the cytopathic effect of HIV (in words)", "setting": "[1]", "value": "protection against the cytopathicity of the virus"}]}, {"molecule": "C=C(C)[C@H]1CCc2c(c(C)cc(O)c(=O)c2O)C1", "note": "[Manicol, 5,7-dihydroxy-2-isopropenyl-9-methyl-1,2,3,4-tetrahydro-benzocyclohepten-6-one, reference compound]", "values": [{"measurement": "protection against the cytopathic effect of HIV (in words)", "setting": "[1]", "value": "no protection against the cytopathic effect of HIV"}]}, {"molecule": "Cc1cc(O)c(=O)c(O)c2c1C[C@@H](C(C)(O)CNc1ccccc1)CC2", "note": "(mixture of isomers) [Compound 5, 5,7-Dihydroxy-2-(1-hydroxy-1-methyl-2-phenylamino-ethyl)-9-methyl-1,2,3,4-tetrahydrobenzocyclohepten-6-one]", "values": [{"measurement": "inhibition of DNA-dependent DNA polymerase activity (in words)", "setting": "[2]", "value": "significantly and consistently inhibited"}, {"measurement": "inhibition of DNA-dependent DNA polymerase activity (in words)", "setting": "[3]", "value": "significantly and consistently inhibited"}, {"measurement": "protection against the cytopathic effect of HIV (in words)", "setting": "[1]", "value": "protection against the cytopathicity of the virus"}]}, {"molecule": "Cc1cc(O)c(=O)c(O)c2c1C[C@@H](C(C)(O)CNCc1ccccc1F)CC2", "note": "(mixture of isomers) [Compound 4, 2-[2-(2-Fluoro-benzylamino)-1-hydroxy-1-methyl-ethyl]-5,7-dihydroxy-9-methyl-1,2,3,4-tetrahydrobenzocyclohepten-6-one]", "values": [{"measurement": "protection against the cytopathic effect of HIV (in words)", "setting": "[1]", "value": "no protection against virus cytopathicity"}]}, {"molecule": "2,7-dihydroxy-4-isopropyl-cyclohepta-2,4,6-triene [β-Thujaplicinol, reference compound]", "values": [{"measurement": "protection against the cytopathic effect of HIV (in words)", "setting": "[1]", "value": "no protection against the cytopathic effect of HIV"}]}, {"molecule": "Cc1cc(O)c(=O)c(O)c2c1C[C@@H](C(C)(O)CSCc1ccccc1)CC2", "note": "(mixture of isomers) [Compound 8, 2-(2-Benzylsulfanyl-1-hydroxy-1-methyl-ethyl)-5,7-dihydroxy-9-methyl-1,2,3,4-tetrahydrobenzocyclohepten-6-one]", "values": [{"measurement": "protection against the cytopathic effect of HIV (in words)", "setting": "[1]", "value": "protection against the cytopathicity of the virus"}]}, {"molecule": "CCN(CC)CC(C)(O)[C@H]1CCc2c(c(C)cc(O)c(=O)c2O)C1", "note": "(mixture of isomers) [Compound 3, 2-(2-Diethylamino-1-hydroxy-1-methyl-ethyl)-5,7-dihydroxy-9-methyl-1,2,3,4-tetrahydrobenzocyclohepten-6-one]", "values": [{"measurement": "protection against the cytopathic effect of HIV (in words)", "setting": "[1]", "value": "slight protection against cytopathicity"}, {"measurement": "Viral Replication EC50 column, protective effect class", "setting": "[1]; highest concentration 50 µM", "value": "< 50", "unit": "% ^c"}]}, {"molecule": "Cc1cc(O)c(=O)c(O)c2c1C[C@@H](C(C)O)CC2", "note": "(mixture of isomers) [Compound 13, 5,7-Dihydroxy-2-(1-hydroxy-ethyl)-9-methyl-1,2,3,4-tetrahydrobenzocyclohepten-6-one]", "values": [{"measurement": "protection against the cytopathic effect of HIV (in words)", "setting": "[1]", "value": "protection against the cytopathicity of the virus"}]}, {"molecule": "CCS(=O)(=O)CC(C)(O)[C@H]1CCc2c(c(C)cc(O)c(=O)c2O)C1", "note": "(mixture of isomers) [Compound 9, 2-(2-Ethanesulfonyl-1-hydroxy-1-methyl-ethyl)-5,7-dihydroxy-9-methyl-1,2,3,4-tetrahydrobenzocyclohepten-6-one]", "values": [{"measurement": "protection against the cytopathic effect of HIV (in words)", "setting": "[1]", "value": "slight protection against cytopathicity"}]}, {"molecule": "Cc1cc(O)c(=O)c(O)c2c1CC(C(C)(O)CO)CC2", "note": "(stereo not drawn) [Compound 12, 2-(1,2-Dihydroxy-1-methyl-ethyl)-5,7-dihydroxy-9-methyl-1,2,3,4-tetrahydrobenzocyclohepten-6-one]", "values": [{"measurement": "protection against the cytopathic effect of HIV (in words)", "setting": "[1]", "value": "no protection against virus cytopathicity"}]}, {"molecule": "CCSCC(C)(O)[C@H]1CCc2c(c(C)cc(O)c(=O)c2O)C1", "note": "(mixture of isomers) [Compound 6, 2-(2-Ethylsulfanyl-1-hydroxy-1-methyl-ethyl)-5,7-dihydroxy-9-methyl-1,2,3,4-tetrahydrobenzocyclohepten-6-one]", "values": [{"measurement": "protection against the cytopathic effect of HIV (in words)", "setting": "[1]", "value": "slight protection against cytopathicity"}]}, {"molecule": "Cc1cc(O)c(=O)c(O)c2c1C[C@@H](C(C)(O)CN1CCCCC1)CC2", "note": "(mixture of isomers) [Compound 1, 5,7-Dihydroxy-2-(1-hydroxy-1-methyl-2-piperidin-1-yl-ethyl)-9-methyl-1,2,3,4-tetrahydro benzocyclohepten-6-one]", "values": [{"measurement": "In vitro therapeutic index (CC50/EC50)", "setting": "[1]", "value": 4.9}, {"measurement": "protection against the cytopathic effect of HIV (in words)", "setting": "[1]", "value": "protection against the cytopathicity of the virus"}]}, {"molecule": "Cc1cc(O)c(=O)c(O)c2c1C[C@@H](C(C)(O)Cn1ccnc1)CC2", "note": "(mixture of isomers) [Compound 2, 5,7-Dihydroxy-2-(1-hydroxy-2-imadazol-1-yl-1-methyl-ethyl)-9-methyl-1,2,3,4-tetrahydro benzocyclohepten-6-one]", "values": [{"measurement": "protection against the cytopathic effect of HIV (in words)", "setting": "[1]", "value": "protection against the cytopathicity of the virus"}]}, {"molecule": "Cc1cc(O)c(=O)c(O)c2c1C[C@@H](C(C)(O)CSc1ccccc1)CC2", "note": "(mixture of isomers) [Compound 7, 5,7-Dihydroxy-2-(1-hydroxy-1-methyl-2-phenylsulfanyl-ethyl)-9-methyl-1,2,3,4-tetrahydrobenzocyclohepten-6-one]", "values": [{"measurement": "protection against the cytopathic effect of HIV (in words)", "setting": "[1]", "value": "protection against the cytopathicity of the virus"}]}]}
